Assay results published in the NIST ThermoML archive (doi:10.1021/je060271a).
Where “and” joins values, the source holds several entries; their conditions need not be identical. Equal values may be shown once. Numbers after ± are expanded uncertainties.

Details: 343.16 K, Liquid, Vibrating tube method

CCCCCC(=O)OCC(COC(=O)CCCCC)(COC(=O)CCCCC)COC(=O)CCCCC [pentaerythritol tetrahexanoate]
Details	mass density
251.1 kPa	957.3 ± 1.2 kg/m3 and 957.2 ± 1.2 kg/m3
254 kPa	957.3 ± 1.2 kg/m3 and 957.1 ± 1.2 kg/m3
254.2 kPa	957.2 ± 1.2 kg/m3
254.4 kPa	957.3 ± 1.2 kg/m3
254.5 kPa	957.3 ± 1.2 kg/m3
255.8 kPa	957.3 ± 1.2 kg/m3
255.9 kPa	957.3 ± 1.2 kg/m3
256.3 kPa	957.3 ± 1.2 kg/m3
258.5 kPa	957.2 ± 1.2 kg/m3
258.7 kPa	957.2 ± 1.2 kg/m3
258.9 kPa	957.3 ± 1.2 kg/m3
259.1 kPa	957.2 ± 1.2 kg/m3
260.1 kPa	957.2 ± 1.2 kg/m3 and 957.3 ± 1.2 kg/m3
263.7 kPa	957.2 ± 1.2 kg/m3
264.3 kPa	957.3 ± 1.2 kg/m3
264.6 kPa	957.3 ± 1.2 kg/m3
264.8 kPa	957.2 ± 1.2 kg/m3
265 kPa	957.2 ± 1.2 kg/m3
265.1 kPa	957.3 ± 1.2 kg/m3
265.5 kPa	957.2 ± 1.2 kg/m3
265.7 kPa	957.3 ± 1.2 kg/m3
266 kPa	957.2 ± 1.2 kg/m3
266.2 kPa	957.3 ± 1.2 kg/m3 and 957.2 ± 1.2 kg/m3
266.5 kPa	957.3 ± 1.2 kg/m3
266.7 kPa	957.3 ± 1.2 kg/m3
267 kPa	957.3 ± 1.2 kg/m3
267.2 kPa	957.4 ± 1.2 kg/m3
267.6 kPa	957.2 ± 1.2 kg/m3
267.7 kPa	957.3 ± 1.2 kg/m3 and 957.4 ± 1.2 kg/m3
268.3 kPa	957.4 ± 1.2 kg/m3
268.4 kPa	957.2 ± 1.2 kg/m3 and 957.3 ± 1.2 kg/m3
268.6 kPa	957.3 ± 1.2 kg/m3
269.1 kPa	957.2 ± 1.2 kg/m3 and 957.3 ± 1.2 kg/m3
269.5 kPa	957.3 ± 1.2 kg/m3
269.8 kPa	957.2 ± 1.2 kg/m3
270.2 kPa	957.3 ± 1.2 kg/m3
270.3 kPa	957.3 ± 1.2 kg/m3
270.5 kPa	957.3 ± 1.2 kg/m3
271.4 kPa	957.4 ± 1.2 kg/m3
271.6 kPa	957.2 ± 1.2 kg/m3 and 957.3 ± 1.2 kg/m3
271.7 kPa	957.4 ± 1.2 kg/m3
272.1 kPa	957.2 ± 1.2 kg/m3 and 957.3 ± 1.2 kg/m3
272.3 kPa	957.3 ± 1.2 kg/m3
272.6 kPa	957.3 ± 1.2 kg/m3
273 kPa	957.3 ± 1.2 kg/m3
273.3 kPa	957.3 ± 1.2 kg/m3
274.7 kPa	957.1 ± 1.2 kg/m3
274.9 kPa	957.4 ± 1.2 kg/m3
275 kPa	957.2 ± 1.2 kg/m3
276.9 kPa	957.4 ± 1.2 kg/m3
279.9 kPa	957.2 ± 1.2 kg/m3
280.2 kPa	957.4 ± 1.2 kg/m3
280.4 kPa	957.3 ± 1.2 kg/m3 and 957.4 ± 1.2 kg/m3
280.6 kPa	957.3 ± 1.2 kg/m3
280.9 kPa	957.2 ± 1.2 kg/m3 and 957.3 ± 1.2 kg/m3
281.3 kPa	957.3 ± 1.2 kg/m3
281.5 kPa	957.3 ± 1.2 kg/m3
281.8 kPa	957.2 ± 1.2 kg/m3 and 957.4 ± 1.2 kg/m3
282.3 kPa	957.4 ± 1.2 kg/m3
282.7 kPa	957.4 ± 1.2 kg/m3
282.9 kPa	957.3 ± 1.2 kg/m3
283 kPa	957.3 ± 1.2 kg/m3
283.4 kPa	957.3 ± 1.2 kg/m3
283.9 kPa	957.2 ± 1.2 kg/m3
284.2 kPa	957.3 ± 1.2 kg/m3
284.4 kPa	957.3 ± 1.2 kg/m3
284.7 kPa	957.3 ± 1.2 kg/m3
284.8 kPa	957.3 ± 1.2 kg/m3
285.4 kPa	957.3 ± 1.2 kg/m3
290.3 kPa	957.4 ± 1.2 kg/m3
290.5 kPa	957.3 ± 1.2 kg/m3 and 957.4 ± 1.2 kg/m3
290.7 kPa	957.4 ± 1.2 kg/m3
293.8 kPa	957.1 ± 1.2 kg/m3
294 kPa	957.4 ± 1.2 kg/m3
294.3 kPa	957.2 ± 1.2 kg/m3
294.7 kPa	957.2 ± 1.2 kg/m3
294.8 kPa	957.2 ± 1.2 kg/m3
295.2 kPa	957.2 ± 1.2 kg/m3
295.5 kPa	957.3 ± 1.2 kg/m3
295.9 kPa	957.3 ± 1.2 kg/m3
296.4 kPa	957.2 ± 1.2 kg/m3
299.9 kPa	957.4 ± 1.2 kg/m3 and 957.3 ± 1.2 kg/m3
300 kPa	957.4 ± 1.2 kg/m3
300.2 kPa	957.4 ± 1.2 kg/m3
300.6 kPa	957.2 ± 1.2 kg/m3
300.7 kPa	957.3 ± 1.2 kg/m3
300.9 kPa	957.2 ± 1.2 kg/m3
301.1 kPa	957.2 ± 1.2 kg/m3
301.3 kPa	957.3 ± 1.2 kg/m3
301.6 kPa	957.4 ± 1.2 kg/m3 and 957.3 ± 1.2 kg/m3
302.1 kPa	957.3 ± 1.2 kg/m3 and 957.4 ± 1.2 kg/m3
302.5 kPa	957.2 ± 1.2 kg/m3
302.7 kPa	957.3 ± 1.2 kg/m3
303 kPa	957.3 ± 1.2 kg/m3
303.2 kPa	957.2 ± 1.2 kg/m3
304.2 kPa	957.3 ± 1.2 kg/m3
304.6 kPa	957.2 ± 1.2 kg/m3
304.7 kPa	957.4 ± 1.2 kg/m3
305.1 kPa	957.2 ± 1.2 kg/m3
305.4 kPa	957.4 ± 1.2 kg/m3
307.2 kPa	957.3 ± 1.2 kg/m3
310.1 kPa	957.3 ± 1.2 kg/m3
310.3 kPa	957.4 ± 1.2 kg/m3
310.5 kPa	957.3 ± 1.2 kg/m3
310.6 kPa	957.4 ± 1.2 kg/m3
312.2 kPa	957.3 ± 1.2 kg/m3
312.6 kPa	957.2 ± 1.2 kg/m3
313.1 kPa	957.4 ± 1.2 kg/m3
313.6 kPa	957.4 ± 1.2 kg/m3
313.9 kPa	957.4 ± 1.2 kg/m3
314.3 kPa	957.4 ± 1.2 kg/m3
314.5 kPa	957.4 ± 1.2 kg/m3
314.6 kPa	957.2 ± 1.2 kg/m3
314.8 kPa	957.4 ± 1.2 kg/m3
315.3 kPa	957.3 ± 1.2 kg/m3
315.5 kPa	957.4 ± 1.2 kg/m3
317.1 kPa	957.4 ± 1.2 kg/m3
317.4 kPa	957.3 ± 1.2 kg/m3
318.1 kPa	957.3 ± 1.2 kg/m3
321.6 kPa	957.4 ± 1.2 kg/m3
322.1 kPa	957.4 ± 1.2 kg/m3
325.6 kPa	957.3 ± 1.2 kg/m3
328.2 kPa	957.3 ± 1.2 kg/m3
328.7 kPa	957.4 ± 1.2 kg/m3
328.9 kPa	957.3 ± 1.2 kg/m3
329.2 kPa	957.4 ± 1.2 kg/m3
329.6 kPa	957.3 ± 1.2 kg/m3
329.9 kPa	957.2 ± 1.2 kg/m3
330.1 kPa	957.4 ± 1.2 kg/m3
330.6 kPa	957.3 ± 1.2 kg/m3
330.8 kPa	957.3 ± 1.2 kg/m3
331.3 kPa	957.4 ± 1.2 kg/m3
331.5 kPa	957.4 ± 1.2 kg/m3 and 957.3 ± 1.2 kg/m3
332 kPa	957.3 ± 1.2 kg/m3
332.4 kPa	957.3 ± 1.2 kg/m3
332.5 kPa	957.3 ± 1.2 kg/m3
332.9 kPa	957.3 ± 1.2 kg/m3
337.1 kPa	957.2 ± 1.2 kg/m3
337.6 kPa	957.4 ± 1.2 kg/m3
337.8 kPa	957.3 ± 1.2 kg/m3
344.9 kPa	957.4 ± 1.2 kg/m3
345.2 kPa	957.4 ± 1.2 kg/m3 and 957.3 ± 1.2 kg/m3
345.9 kPa	957.4 ± 1.2 kg/m3
346.4 kPa	957.5 ± 1.2 kg/m3
353.7 kPa	957.3 ± 1.2 kg/m3 and 957.4 ± 1.2 kg/m3
